Test results reported in US20130289070A1, “Use of Levocabastine for Modulating Generation of Pro-Inflammatory Cytokines” (Bausch & Lomb Incorporated, priority 2007, published 2013).

System: EoL-1 (human eosinophilic leukaemia cell line) cells
Assay: TNF-α-induced cytokine release, non-differentiated EoL-1 cells (NO PMA) (Luminex)
Assay type: cell-based
Design: key to Fractalkine (NO PMA), p of decrement / IL-1α (NO PMA), p of decrement / IL-1β (NO PMA), p of decrement / IL-1ra (NO PMA), p of decrement / IL-5 (NO PMA), p of decrement / IL-7 (NO PMA), p of decrement / IL-8 (NO PMA), p of decrement / IP-10 (NO PMA), p of decrement / MCP-1 (NO PMA), p of decrement / MIP-1β (NO PMA), p of decrement / VEGF (NO PMA), p of decrement: ns = non significant
Procedure: EoL-1 (human eosinophilic leukaemia cell line) cells (Saito et al., 1985; Mayumi, 1992) were maintained in RPMI-1640 medium with L-glutamine supplemented with 10% (v/v) FBS at 37° C. in a humidified atmosphere with 5% CO2. Where indicated, 24 h before the experiment 25 ng/mL PMA ((phorbol 12-myristate 13-acetate, purchased from Sigma Aldrich) was added to the medium to induce eosinophil granulation and differentiation (Ohtsu et al., 1993; Zimmermann et al., 2000).
Half-million cells were aliquoted per point in a 24 well plate; each experiment was performed in triplicate and carried out in parallel with eosinophils differentiated and non differentiated with PMA (25 ng/mL, 24 h). Cells were suspended in low serum medium (RPMI-1640, 0.1% (v/v) FBS). TNF-α was used to induce cytokine secretion as previously described by Steube et al. (2000), and the net release was obtained by comparison to the basal (non-TNF-α treated). In the first experiment we evaluated the concentration and time relation between TNF-α stimulation and cytokine release. Therefore, 5, 10, and 25 ng/mL of TNF-α was administered to the cells at 0, ½, 1, 2, 3, 6, 12 and 24 h (data not shown). An aliquot of 150 μL of supernate was collected for cytokines' analysis. […] Differentiated and non-differentiated EoL-1 cells were exposed from 0.1 to 2.3 mM levocabastine ([…]Levocabastine 0.05% solution eye drops containing cyclodextrins, without benzalkonium chloride), and aliquots of the supernates were collected after 12 and 24 h. The content of cytokines at time zero was estimated by treating the cells with 400 nM calcimycin (A-23187), which is a cytolytic agent that frees all the mediators from the cytoplasmic compartment. In addition, for each experiment we tested the effect of the vehicle, which was added to the wells in a concentration equal to the maximum amount used for drug dilution.
Samples (supernates 12 and 24 h) in triplicate were analyzed using Luminex 200™ (Luminex, Austin, Tex.) and Beadview software v1.0 (Upstate Cell Signaling Solutions, Temecula, Calif.).
All data are presented as mean±SEM for the indicated number of experiments. Statistical significance was determined by Newman-Keuls test after ANOVA using GraphPad Prism (version 3.0; GraphPad Software Inc., San Diego, Calif., USA). P-values<0.05 were considered to be significant.

[1] = 12 h, TNF-α 5 ng + Levocabastine 2 mM vs TNF-α
[2] = 12 h, TNF-α 10 ng + Levocabastine 2 mM vs TNF-α
[3] = 12 h, TNF-α 20 ng + Levocabastine 2 mM vs TNF-α
[4] = 12 h, TNF-α 5, 10, 20 ng + Levocabastine 2 mM vs TNF-α

C[C@@H]1CN([C@H]2CC[C@](C#N)(c3ccc(F)cc3)CC2)CC[C@]1(C(=O)O)c1ccccc1 [Levocabastine, levocabastine]
release of IL-1-ra induced by TNF-α (2 mM, TNF-α 10 ng, 24 h, not exposed to PMA, not influenced by VCAM-1 or fibronectin (FIG. 11)): effective in reducing the release | release of IL-6 induced by TNF-α (2 mM, TNF-α 10 ng, 24 h, not exposed to PMA, not influenced by VCAM-1 or fibronectin (FIG. 12)): effective in reducing the release | release of IL-8 induced by TNF-α (2 mM, TNF-α 10 ng, 24 h, not exposed to PMA, not influenced by VCAM-1 or fibronectin (FIG. 13)): effective in reducing the release | release of IL-12-P40 induced by TNF-α (2 mM, TNF-α 5, 10 and 20 ng, 24 h, without PMA (FIG. 7)): capable of reducing the release | GM-CSF (NO PMA), p of decrement [1]: ns | IL-1β (NO PMA), p of decrement [1]: ns | IL-5 (NO PMA), p of decrement [1]: ns | IL-6 (NO PMA), p of decrement [1]: ns | IL-7 (NO PMA), p of decrement [1]: ns | IL-8 (NO PMA), p of decrement [1]: ns | IL-10 (NO PMA), p of decrement [1]: ns | IL-12p40 (NO PMA), p of decrement [1]: P < 0.001 | MCP-1 (NO PMA), p of decrement [1]: ns | TGF-α (NO PMA), p of decrement [1]: ns | VEGF (NO PMA), p of decrement [1]: P < 0.01 | GM-CSF (NO PMA), p of decrement [2]: ns | IL-1β (NO PMA), p of decrement [2]: ns | IL-5 (NO PMA), p of decrement [2]: ns | IL-6 (NO PMA), p of decrement [2]: ns | IL-7 (NO PMA), p of decrement [2]: ns | IL-8 (NO PMA), p of decrement [2]: ns | IL-10 (NO PMA), p of decrement [2]: ns | IL-12p40 (NO PMA), p of decrement [2]: P < 0.001 | MCP-1 (NO PMA), p of decrement [2]: ns | TGF-α (NO PMA), p of decrement [2]: ns | VEGF (NO PMA), p of decrement [2]: P < 0.01 | GM-CSF (NO PMA), p of decrement [3]: ns | IL-1β (NO PMA), p of decrement [3]: ns | IL-5 (NO PMA), p of decrement [3]: ns | IL-6 (NO PMA), p of decrement [3]: ns | IL-7 (NO PMA), p of decrement [3]: ns | IL-8 (NO PMA), p of decrement [3]: ns | IL-10 (NO PMA), p of decrement [3]: ns | IL-12p40 (NO PMA), p of decrement [3]: P < 0.001 | MCP-1 (NO PMA), p of decrement [3]: ns | TGF-α (NO PMA), p of decrement [3]: ns | VEGF (NO PMA), p of decrement [3]: P < 0.05 | Fractalkine (NO PMA), p of decrement [4]: increase of cytokine secretion | G-CSF (NO PMA), p of decrement [4]: increase of cytokine secretion | IL-1ra (NO PMA), p of decrement [4]: increase of cytokine secretion | IL-1α (NO PMA), p of decrement [4]: increase of cytokine secretion | IP-10 (NO PMA), p of decrement [4]: increase of cytokine secretion | MIP-1α (NO PMA), p of decrement [4]: increase of cytokine secretion | MIP-1β (NO PMA), p of decrement [4]: increase of cytokine secretion | RANTES (NO PMA), p of decrement [4]: increase of cytokine secretion | Fractalkine (NO PMA), p of decrement (12 h, TNF-α vs Lev 0.1 mM): ns | IL-1ra (NO PMA), p of decrement (12 h, TNF-α vs Lev 0.1 mM): ns | IL-1α (NO PMA), p of decrement (12 h, TNF-α vs Lev 0.1 mM): ns | IL-1β (NO PMA), p of decrement (12 h, TNF-α vs Lev 0.1 mM): ns | IL-5 (NO PMA), p of decrement (12 h, TNF-α vs Lev 0.1 mM): ns | IL-7 (NO PMA), p of decrement (12 h, TNF-α vs Lev 0.1 mM): ns | IL-8 (NO PMA), p of decrement (12 h, TNF-α vs Lev 0.1 mM): ns | IP-10 (NO PMA), p of decrement (12 h, TNF-α vs Lev 0.1 mM): ns | MCP-1 (NO PMA), p of decrement (12 h, TNF-α vs Lev 0.1 mM): ns | MIP-1β (NO PMA), p of decrement (12 h, TNF-α vs Lev 0.1 mM): ns | VEGF (NO PMA), p of decrement (12 h, TNF-α vs Lev 0.1 mM): ns | Fractalkine (NO PMA), p of decrement (12 h, TNF-α vs Lev 0.5 mM): ns | IL-1ra (NO PMA), p of decrement (12 h, TNF-α vs Lev 0.5 mM): ns | IL-1α (NO PMA), p of decrement (12 h, TNF-α vs Lev 0.5 mM): ns | IL-1β (NO PMA), p of decrement (12 h, TNF-α vs Lev 0.5 mM): ns
